Laboratory results published in publication PMC8631675, “Neuroprotective effects of some epigenetic modifying drugs’ on Chlamydia pneumoniae-induced neuroinflammation: A novel model” (PLoS ONE, 2021).
Like-named read-outs stand apart in the source and are kept apart here.

What was measured:
HMC3 microglia cells = test: Cell proliferation (cytotoxicity) analysis with xCELLigence, HMC3; assay type: cell-based, human
Protocol: (§1) Cell proliferation analysis was performed with xCELLigence Real-Time Cell Analysis System to assess TSA, RG108, givinostat, and rifampin concentrations for use in both models. Differentiated SH-SY5Y and HMC3 microglia cells were seeded at a 5x10^3 density per well and incubated 24 h until CI values reached a log phase. The system stopped at the end of 24 h, 100, 10 and 1 μM TSA, givinostat, RG108 and rifampin were applied on current media and the cell viability was tracked. […] Simultaneously, slope plots were drawn using the CI values at 24 and 48 hours, and the statistical significance of the values discovered by assuming the average CI values of the control wells to be 100% was calculated.

[1] = system: differentiated SH-SY5Y cells; test: Annexin V-PI staining of Aβ-induced cell death, flow cytometry; assay type: cell-based, human; details: for Necrotic effect (Q5-UL): control 1.6%; for Apoptotic effect (early apoptosis + late apoptosis): control 1.9%; for Percentage of living cells (Live): control 96.5%
Protocol: To determine neuronal apoptosis associated with Aβ exposure, 25x10^3 differentiated SH-SY5Y cells were seeded in 24-well plates and Aβ was applied. After 24 h, cells were trypsinized and staining was performed according to the CF 488A Annexin V and PI Apoptosis Kit (Biotium, USA, Cat. No: 30061) protocol. After washing the cells with 1xPBS, the working solution was prepared by diluting the PI with Annexin V binding buffer included in the kit. 5 μl Annexin V and 2 μl PI working solution were added to the centrifuge tubes and binded with 100 μl Annexin V binding buffer. After the samples were incubated for 30 minutes on ice and in the dark, 400 μl of Annexin V binding buffer was added to each tube and the samples were measured and analyzed in a BD Accuri™ C6 flow cytometry device.

[2] = system: differentiated SH-SY5Y cells; test: Cell proliferation (cytotoxicity) analysis with xCELLigence, SH-SY5Y; assay type: cell-based, human
Protocol: as §1

[3] = system: differentiated SH-SY5Y cells; test: Cell viability against Aβ-induced neurotoxicity, xCELLigence; assay type: cell-based, human
Protocol: Pathological deterioration in AD is mainly associated with overproduction of the Aβ peptide and the Aβ (1–42) variant is the toxic form that is more predominant in Alzheimer’s patients. In this study, a modified oligomeric Aβ (1–42) neurotoxicity analysis protocol was applied in order to elucidate the effects of treatment groups on SH-SY5Y cell viability in the presence of Aβ [56]. In order to model Aβ-induced neurotoxicity in vitro, an oligomeric form of the Aβ1–42 peptide was prepared by diluting with ice-cold Ham’s F12 Nutrient Mixture medium dissolved in PBS containing 0.02 M NaOH at a final concentration of 50 μM and kept in a 37°C incubator for 7 days to form peptide aggregates prior to the experiments. 5x10^3 SH-SY5Y cells were differentiated inside the xCELLigence instrument for 5 days and treated with 100 nM TSA, RG108, givinostat, rifampin; 100 ng/ml LPS+IFN-ɣ or 1 μg/ml CFS+IFN-ɣ for 24 h in order to evaluate neuroprotection. The co-culture was performed in the same way as the neuroinflammation model. Neurotoxicity was obtained instead of neuroinflammation by diluting to 5 μM with fresh medium and adding Aβ1–42 aggregates to the wells for 24 h in 100 μl of medium. Cell viability data was then monitored for 24 h and analyzed within the instrument.

SH-SY5Y cells = test: Total ROS/Superoxide detection; assay type: cell-based, human; details: for Increase of ROS levels compared to the control group: inducers without drug pretreatment (Aβ, pyocyanin, or both)
Protocol: The Total ROS/Superoxide Detection Kit (ENZ-51010, Enzo) was used according to the kit process for evaluating the protective effects of the treatment groups on SH-SY5Y cells seeded at a 2x10^4 density per well in 96-well plates and Aβ was applied. ROS inhibitor N-acetyl cysteine (NAC) was applied at 5 mM concentration to negative control groups 30 minutes before the experiment and after incubation, 100 μL of “ROS/Superoxide Detection Solution” was added to the wells in the kit. The same procedure was done without the application of ROS inhibitor. Fluorometric analysis of stained cells was analyzed with Cytation 3 Cell Imaging Multi-Mode Reader (BioTek) using 490/525 nm and 550/620 nm filter sets.

APP/PS1 mice = system: APP/PS1 mice; set-up: method as in PMID 33397436; details: cited from earlier work
[4] = pretreatment (drugs 100 nM; LPS 100 ng/ml + IFN-γ; CFS 1 μg/ml + IFN-γ) + 5 μM Aβ 24 h
[5] = 24 h pretreatment (drugs 100 nM; CFS 1 μg/ml + IFN-γ; LPS 100 ng/ml + IFN-γ), then 5 μM Aβ (1–42) aggregates 24 h
[6] = 30 minutes NAC 5 mM, treated (drugs 100 nM; LPS 100 ng/ml; CFS 1 μg/ml, with IFN-γ) prior to Aβ exposure
[7] = cells treated (drugs 100 nM; LPS 100 ng/ml; CFS 1 μg/ml, with IFN-γ) before exposure to Aβ, without NAC

| Molecule | Reduction of HMC3 cell viability compared to the control group (HMC3 microglia cells; 1 μM (printed M), 24 hours) [%] | Reduction of HMC3 cell viability compared to the control group (HMC3 microglia cells; 1 μM (printed M), 48 hours) [%] | Reduction of HMC3 cell viability compared to the control group (HMC3 microglia cells; 10 μM, 24 hours) [%] | Reduction of HMC3 cell viability compared to the control group (HMC3 microglia cells; 10 μM, 48 hours) [%] | Reduction of HMC3 cell viability compared to the control group (HMC3 microglia cells; 100 μM, 24 hours) [%] | Reduction of HMC3 cell viability compared to the control group (HMC3 microglia cells; 100 μM, 48 hours) [%] | Necrotic effect (Q5-UL) [1, 4] [%] | Apoptotic effect (early apoptosis + late apoptosis) [1, 4] [%] | Percentage of living cells (Live) [1, 4] [%] | Reduction of differentiated SH-SY5Y cell viability ([2]; 1 μM, 24 hours) [%] | Reduction of differentiated SH-SY5Y cell viability ([2]; 1 μM, 48 hours) [%] | Reduction of differentiated SH-SY5Y cell viability ([2]; 10 μM, 24 hours) [%] | Reduction of differentiated SH-SY5Y cell viability ([2]; 10 μM, 48 hours) [%] | Reduction of differentiated SH-SY5Y cell viability ([2]; 100 μM, 24 hours) [%] | Reduction of differentiated SH-SY5Y cell viability ([2]; 100 μM, 48 hours) [%] | CI values compared to the control group [3, 5] [%] | Increase of total amount of ROS compared to the control group, with NAC (SH-SY5Y cells; [6]) [%] | Decrease of total ROS amount according to the Aβ group (SH-SY5Y cells; [7]) [%] | Increase of ROS levels compared to the control group (SH-SY5Y cells; without NAC) [%] | also measured |
| --- | --- | --- | --- | --- | --- | --- | --- | --- | --- | --- | --- | --- | --- | --- | --- | --- | --- | --- | --- | --- |
| CCN(CC)Cc1ccc2cc(COC(=O)Nc3ccc(C(=O)NO)cc3)ccc2c1 [Givinostat, givinostat] | 35.01 | 62.78 | 58.19 | 92.67 | 93.58 | 99.29 | 7.8 | 7.8 | 84.3 | 88.72 | 90.56 | 96.85 | 96.9 | 98.06 | 98.77 | 136.2 | 22.87 | 30.49 |  | IC50 (HMC3 microglia cells; Homo sapiens, HMC3, 24 h, from CI values at 24th hour, 1, 10 and 100 μM tested, read-out: IC50 Values 24h HMC3): 11800 nM; IC50 (HMC3 microglia cells; Homo sapiens, HMC3, 48 h, from CI values at 48th hour, 1, 10 and 100 μM tested, read-out: IC50 Values 48h HMC3): 539 nM; Reduction of cell viability compared to the Aβ positive control group ([1]; 100 nM + 5 μM Aβ): 0.5%; IC50 ([2]; Homo sapiens, SH-SY5Y, 24 h, from CI values at 24th hour, 1, 10 and 100 μM tested, read-out: IC50 Values 24h SH-SY5Y): 2780 nM; IC50 ([2]; Homo sapiens, SH-SY5Y, 48 h, from CI values at 48th hour, 1, 10 and 100 μM tested, read-out: IC50 Values 48h SH-SY5Y): 1420 nM; Increase of total amount of ROS compared to the control group (SH-SY5Y cells; cells treated (drugs 100 nM; LPS 100 ng/ml; CFS 1 μg/ml, with IFN-γ) before exposure to Aβ, without NAC, not significant): 13.09% |
| CC(/C=C/C(=O)NO)=C\[C@@H](C)C(=O)c1ccc(N(C)C)cc1 [TSA, Trichostatin A] | 0.04 | 1.75 | 13.88 | 21.94 | 31.68 | 51.2 | 5.6 | 5.8 | 88.6 | 91.34 | 97.97 | 97.43 | 98.9 | 97.86 | 99.79 | 137 | 0.7 | 53.43 |  | IC50 (HMC3 microglia cells; from CI values at 48th hour, 1, 10 and 100 μM tested, read-out: IC50 Values 48h HMC3): 156 nM; Effect on Aβ plaques and soluble Aβ oligomers in the brain (APP/PS1 mice): reduce Aβ plaques and soluble Aβ oligomers in the brain; Effect on learning and memory behaviors (APP/PS1 mice): improve learning and memory behaviors; IC50 ([2]; from CI values at 24th hour, 1, 10 and 100 μM tested, read-out: IC50 Values 24h SH-SY5Y): 596 nM; IC50 ([2]; from CI values at 48th hour, 1, 10 and 100 μM tested, read-out: IC50 Values 48h SH-SY5Y): 312 nM; Decrease of total amount of ROS compared to the control group (SH-SY5Y cells; cells treated with compounds (100 nM) before exposure to Aβ, without NAC): 9.85% |
| Cn1c2cccc(=O)c-2nc2ccccc21 [pyocyanin] |  |  |  |  |  |  |  |  |  |  |  |  |  |  |  |  |  |  | 36.49 | Decrease of amount of ROS, with NAC (SH-SY5Y cells; 30 minutes NAC 5 mM, pyocyanin without Aβ): 0.85% |
| Aβ: oligomeric/aggregated Aβ1–42 peptide used at 5 μM to induce neurotoxicity |  |  |  |  |  |  |  |  |  |  |  |  |  |  |  |  |  |  | 43.58 | Necrotic effect (Q5-UL) ([1]; 5 μM Aβ alone 24 h): 6.7%; Apoptotic effect (early apoptosis + late apoptosis) ([1]; 5 μM Aβ alone 24 h): 8.5%; Percentage of living cells (Live) ([1]; 5 μM Aβ alone 24 h): 84.8%; CI values compared to the control group ([3]; 5 μM Aβ (1–42) aggregates alone, 24 h): 48.5%; Increase of total amount of ROS compared to the control group, with NAC (SH-SY5Y cells; 30 minutes ROS inhibitor NAC 5 mM, inducers without drug pretreatment (Aβ, or Aβ with pyocyanin)): 6.62% |
